Tests used:
Assay in all cases: relative viability (nuclei count vs DMSO), 5 days (fraction); higher = more cells survive
[1] = compound: C1COCCN1C2=NC(=NC3=C2OC4=C3C=CC=N4)C5=CC(=CC=C5)NC(=O)C6=CN=C(C=C6)N + O=C(CCCCCCC(=O)Nc1ccccc1)NO [Vorinostat] (partner 1 µM)
Method in brief: (§1)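 One day after seeding in 1536-well plates, lung cancer cell lines were dosed by pin tool. Dosing was either single-drug or a fixed anchor-drug dose plus five library-drug doses (not always all listed) in √10 steps. After 5 days, nuclei were stained in one fix-and-stain step and counted on 4× images, and relative viability is the nuclei count of treated wells over that of vehicle wells, given as the median of duplicate plates.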

SGI-1776 + Vorinostat = compound: CN1CCC(CNc2ccc3ncc(-c4cccc(OC(F)(F)F)c4)n3n2)CC1 [SGI-1776] + O=C(CCCCCCC(=O)Nc1ccccc1)NO [Vorinostat] (partner 1 µM)
Method in brief: as §1

[2] = compound: C1COCCN1C2=NC(=NC3=C2OC4=C3C=CC=N4)C5=CC(=CC=C5)NC(=O)C6=CN=C(C=C6)N + CC1(C)CCC(c2ccc(Cl)cc2)=C(CN2CCN(c3ccc(C(=O)NS(=O)(=O)c4ccc(N[C@H](CCN5CCOCC5)CSc5ccccc5)c(S(=O)(=O)C(F)(F)F)c4)cc3)CC2)C1 [Navitoclax] (partner 0.5 µM)
Method in brief: as §1

Cell Line | relative viability ([1]; first compound 0.02 µM) | relative viability ([1]; first compound 0.06325 µM) | relative viability ([1]; first compound 0.2 µM) | relative viability ([1]; first compound 0.6325 µM) | relative viability ([1]; first compound 2 µM) | relative viability (SGI-1776 + Vorinostat; first compound 0.08 µM) | relative viability (SGI-1776 + Vorinostat; first compound 0.8 µM) | relative viability (SGI-1776 + Vorinostat; first compound 2.53 µM) | relative viability (SGI-1776 + Vorinostat; first compound 8 µM) | relative viability ([2]; first compound 0.02 µM) | relative viability ([2]; first compound 0.06325 µM) | relative viability ([2]; first compound 0.2 µM) | relative viability ([2]; first compound 0.6325 µM) | relative viability ([2]; first compound 2 µM)
NCI-H1651 | 0.382 | 0.595 | 0.563 | 0.537 | 0.529 | 0.605 | 0.648 | 0.563 | 0.416 | 1.33 | 1.18 | 0.984 | 1.15 | 0.614
NCI-H1666 | 1.07 | 1.09 | 0.966 | 0.736 | 0.865 | 0.999 | 0.971 | 0.957 | 1.01 | 0.856 | 0.96 | 0.722 | 0.687 | 0.573
NCI-H1734 | 0.815 | 0.858 | 0.612 | 0.706 | 0.522 | 0.809 | 0.913 | 0.801 | 0.662 | 0.838 | 0.99 | 0.87 | 0.821 | 0.441
NCI-H1755 | 0.7 | 0.868 | 0.698 | 0.635 | 0.562 | 0.809 | 0.87 | 0.733 | 0.6 | 0.987 | 1.13 | 1.05 | 0.861 | 0.561
NCI-H1793 | 0.61 | 0.846 | 0.571 | 0.59 | 0.574 | 0.843 | 1.15 | 0.768 | 0.638 | 0.398 | 0.523 | 0.416 | 0.655 | 0.375
NCI-H1915 | 0.539 | 0.572 | 0.536 | 0.536 | 0.397 | 0.51 | 0.555 | 0.492 | 0.449 | 0.757 | 0.838 | 0.824 | 0.836 | 0.873
NCI-H1944 | 0.533 | 0.65 | 0.5 | 0.485 | 0.477 | 0.584 | 0.646 | 0.553 | 0.477 | 1.03 | 1.04 | 0.957 | 0.841 | 0.858
NCI-H1975 | 0.675 | 0.689 | 0.631 | 0.624 | 0.389 | 0.745 | 0.725 | 0.683 | 0.589 | 1.31 | 1.17 | 1.05 | 1.13 | 0.422
NCI-H1993 | 0.831 | 0.701 | 0.634 | 0.723 | 0.563 | 1.13 | 0.626 | 0.523 | 0.457 | 0.819 | 1.06 | 0.822 | 0.874 | 0.763
NCI-H2009 | 0.697 | 0.82 | 0.73 | 0.7 | 0.739 | 0.756 | 0.761 | 0.671 | 0.588 | 1.19 | 1.2 | 1.12 | 1.05 | 0.954
NCI-H2023 | 0.602 | 0.747 | 0.506 | 0.623 | 0.319 | 0.795 | 0.8 | 0.713 | 0.463 | 1.05 | 1.03 | 0.967 | 0.904 | 0.444
NCI-H2085 | 0.736 | 0.802 | 0.75 | 0.704 | 0.706 | 0.841 | 0.865 | 0.763 | 0.753 | 1.15 | 1.12 | 1.05 | 1.1 | 0.602
NCI-H2087 | 0.611 | 0.911 | 0.842 | 0.724 | 0.199 | 0.927 | 0.783 | 0.443 | 0.773 | 1.02 | 1.03 | 0.925 | 0.918 | 0.608
NCI-H2126 | 0.707 | 0.941 | 0.758 | 0.786 | 0.582 | 0.709 | 0.801 | 0.77 | 0.698 | 0.872 | 0.828 | 0.9 | 0.839 | 0.763
NCI-H2170 | 0.93 | 0.997 | 0.643 | 0.729 | 0.518 | 0.83 | 0.825 | 0.853 | 0.76 | 0.674 | 0.605 | 0.673 | 0.525 | 0.413
NCI-H2228 | 0.469 | 0.743 | 0.464 | 0.529 | 0.39 | 0.613 | 0.884 | 0.679 | 0.429 | 0.959 | 1.31 | 0.783 | 1.3 | 0.348
NCI-H2347 | 0.582 | 0.494 | 0.645 | 0.528 | 0.559 | 0.598 | 0.622 | 0.588 | 0.496 | 0.854 | 0.895 | 0.815 | 0.747 | 0.528
NCI-H2405 | 1.07 | 1.07 | 1.03 | 0.921 | 0.645 | 1.06 | 1.16 | 0.896 | 0.748 | 0.819 | 0.927 | 0.904 | 0.931 | 0.721
NCI-H3122 | 0.924 | 1.09 | 0.946 | 1.06 | 0.639 | 1.15 | 0.917 | 1.07 | 1.07 | 0.975 | 1.05 | 1.03 | 1.02 | 0.798
PC-3 [JPC-3] | 0.729 | 0.678 | – | 0.662 | 0.638 | 0.853 | 1.04 | 0.756 | 0.421 | 0.823 | 0.847 | 0.848 | 0.741 | 0.615
PC-14 | 0.784 | 0.816 | 0.648 | 0.603 | 0.362 | 0.798 | 0.784 | 0.771 | 0.0624 | 1.09 | 1.06 | 1.02 | 1.01 | 0.465
RERF-LC-KJ | 0.696 | 0.782 | 0.653 | 0.603 | 0.598 | 0.694 | 0.745 | 0.686 | 0.48 | 0.966 | 0.995 | 0.759 | 1 | 0.712
SK-LU-1 | 0.741 | 0.742 | 0.736 | 0.647 | 0.482 | 0.892 | 0.803 | 0.697 | 0.648 | 0.982 | 0.724 | 0.863 | 0.765 | 0.447
SK-MES-1 | 1.12 | 1.22 | 1.09 | 1.03 | 0.72 | 1.23 | 1.04 | 1.11 | 0.734 | 1.42 | 1.22 | 1.17 | 0.931 | 0.787
SW 1573 | 0.737 | 0.953 | 0.705 | 0.552 | 0.451 | 1.12 | 0.461 | 0.607 | 0.312 | 1.02 | 1.01 | 0.856 | 0.912 | 0.567

Source: the supplement of paper PMC10307832
